The values that follow come from ChEMBL document CHEMBL1201862, “PubChem BioAssay data set” (2004).

Test systems include Hs-578T; LXFL 529; DLD-1; XF498; KM-20L2; DMS-114; RXF 631; SNB-78; HOP-18.
Holding throughout (test): NCI anticancer screen, dose series, 48 h

Structures are written as SMILES.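 Tested at 5 concentrations; 48 h exposure; 96-well plates; endpoints linearly interpolated, else capped at highest concentration. The concentration for 50% growth inhibition is given as GI50.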 The source made the active and inactive calls. Rule as the data show it: active = GI50 up to about 1.1 µM and inactive = higher.

As to `O=C(COc1ccc(OCC(=O)NNC2=NC(c3cc(F)c(Cl)cc3Cl)CS2)c(Cl)c1)NNC1=NC(c2cc(F)c(Cl)cc2Cl)CS1` (centres undefined), in the test with Hs-578T, the GI50 was 20.6 µM (inactive).

With `COC(=O)C1=CC2OC1(C)CCC2=O` (centres undefined), the GI50 in the test on LXFL 529 is > 100 µM (inactive); in the test with DLD-1, 80.5 µM (inactive); in the test on XF498, > 100 µM (inactive); in the test on KM-20L2, > 100 µM (inactive).

For the molecule `CC1(C)CCSC(/C=C/c2ccccc2)=N1`, the GI50 in the test with Hs-578T is 43.4 µM (inactive).

Consider `O=C1NCCCC12CCCNC2=O`, for which the GI50 in the test with LXFL 529, in the test with XF498, in the test with DMS-114 and in the test on KM-20L2 was > 100 µM (inactive) throughout.

For the molecule `CCOC(=O)c1cc(-c2ccc(OC)c(OC)c2)cn1C`, the GI50 with Hs-578T was 7.03 µM (inactive).

For the molecule `Cc1cc2c(cc1C)[n+]([O-])c(C(=O)N1CCN(c3ccc([N+](=O)[O-])cc3)CC1)c(C)[n+]2[O-]`, the GI50 in the test on Hs-578T is 96.2 µM (inactive).

In the case of `CCc1cccc(CC)c1NC1=CC(=O)C(=O)c2ccccc21`, the GI50 in the test with LXFL 529 is 19.4 µM (inactive); in the test with DLD-1 it was 15.6 µM (inactive); in the test on RXF 631, 13.8 µM (inactive); with DMS-114, 12.4 µM (inactive); in the test on SNB-78, 26.3 µM (inactive); in the test with KM-20L2 it was 19.8 µM (inactive). In addition, the GI50 with HOP-18 is 21.2 µM (inactive).

For the molecule `Cc1ccc(N2C(=O)N(c3ccc(C)cc3)C3(SC=NN3C)C2=O)cc1` (centres undefined), the GI50 in the test on LXFL 529 is 64.1 µM (inactive); with DLD-1, 67.6 µM (inactive); in the test on DMS-114, 31.2 µM (inactive); with SNB-78, > 100 µM (inactive); in the test on KM-20L2, 44 µM (inactive); with HOP-18 it was > 100 µM (inactive).

Take `CC(C)n1c(=O)n(-c2ccccc2)n(C(C)(C)C)c1=O`: in the test on Hs-578T, the GI50 is > 100 µM (inactive).

For the molecule `CC(C)(C)OC(=O)NCCC(=O)NC1(c2cc3ccccc3s2)CCCCC1`, the GI50 with Hs-578T was 28.1 µM (inactive).

Turning to `COC(=O)C1CCC(=O)N1C(c1ccc(OC)cc1)c1ccc2c(c1)OCO2` (centres undefined), the GI50 with Hs-578T was 36.2 µM (inactive).

`Cc1n[nH]c(=O)n1N=C(c1ccccc1)c1ccccc1`: the GI50 with Hs-578T was > 100 µM (inactive).

As to `CC(C)(C)OC(=O)N1CCC(NC(=O)NC2CCN(C(=O)OC(C)(C)C)CC2)CC1`, the GI50 in the test with Hs-578T was > 100 µM (inactive).

With `CCOC(=O)C(C(=O)OCC)c1ccc([N+](=O)[O-])o1`, the GI50 is 3.6 µM (inactive) in the test on LXFL 529; 4.58 µM (inactive) in the test with DLD-1; 17.1 µM (inactive) with XF498; 14 µM (inactive) in the test on SNB-78; 19.1 µM (inactive) with KM-20L2; 20 µM (inactive) with HOP-18.

As for `COc1ccc2nc3cc([N+](=O)[O-])ccc3c(Nc3ccc(S(=O)(=O)Nc4ncccn4)cc3)c2c1`, the GI50 in the test with Hs-578T was 12.4 µM (inactive).

On to `O=C1/C(=C/c2ccc(Cl)cc2)Sc2scc(-c3cccc([N+](=O)[O-])c3)[n+]21`, for which the GI50 with Hs-578T was 5.48 µM (inactive).

For the molecule `CC(C)CCCC(C)[C@H]1CC[C@H]2[C@@H]3CC[C@H]4C[C@@H](CCC=C(c5cc(Cl)c(O)c(C(=O)O)c5)c5cc(Cl)c(O)c(C(=O)O)c5)CC[C@]4(C)[C@H]3CC[C@]12C` (some centres undefined), the GI50 in the test on Hs-578T was > 50 µM (inactive).

Consider `O=c1oc2ccc([N+](=O)[O-])cc2cc1-c1csc(-c2ccccc2)n1`, for which the GI50 in the test on Hs-578T was > 100 µM (inactive).

As to `c1ccc(C2=C(c3ccccc3)Sc3nnc(CCCCCCCCc4nnc5n4NC(c4ccccc4)=C(c4ccccc4)S5)n3N2)cc1`, the GI50 with Hs-578T was 73.5 µM (inactive).

For `C#CC1(O)C(COP(=O)(O)OC(COCCCCCCCCCCCCCCCCCC)COP(=O)(O)OCC2OC(n3cc(C)c(=O)[nH]c3=O)CC2N=[N+]=[N-])OC(n2ccc(N)nc2=O)C1O` (centres undefined), the GI50 in the test with Hs-578T is 5.4 µM (inactive).

As for `N=C(N)SCCN1CCCCC1`, the GI50 with Hs-578T is 11.7 µM (inactive).

As to `O=c1c2cc([N+](=O)[O-])ccc2nc2n1CCCCC2`, the GI50 with Hs-578T was 43.3 µM (inactive).

On to `C/C(=N\NC(=S)Nc1ccc(C(=O)O)cc1)c1ccccn1`, for which the GI50 with LXFL 529 is 3.05 µM (inactive); in the test on DLD-1, 27.7 µM (inactive); with XF498 it was 26.4 µM (inactive); in the test with DMS-114, 23.1 µM (inactive); in the test on SNB-78, > 100 µM (inactive); in the test on KM-20L2, 25.8 µM (inactive). The GI50 in the test with HOP-18 was 24.7 µM (inactive).

Consider `COc1cc2cc(C(=O)N3C[C@@H](CCl)c4c3cc(N)c3ccccc43)[nH]c2c(OC)c1OC`, for which the GI50 in the test on Hs-578T was 0.00738 µM (active).

For the molecule `COc1cc2c3cc1Oc1c(O)c(OC)cc4c1C(Cc1ccc(O)c(c1)Oc1ccc(cc1)CC3N(C)CC2)N(C)CC4` (centres undefined), the GI50 is 4.92 µM (inactive) with LXFL 529; 19.4 µM (inactive) in the test on XF498; 20 µM (inactive) in the test with DMS-114; 24.9 µM (inactive) in the test with SNB-78; 5.56 µM (inactive) in the test on KM-20L2; 27.9 µM (inactive) in the test with HOP-18.

Regarding `CN1C(=O)C2(C)SC1(c1ccccc1)C1C(=O)N(c3ccccc3)C(=O)C12` (centres undefined), in the test with Hs-578T, the GI50 is > 100 µM (inactive).

As for `CC(=O)Nc1cc2c3c(c1)CCCN3CCC2`, the GI50 in the test on Hs-578T is > 100 µM (inactive).

For `O=C(CC(O)c1cccnc1)CC(O)c1cccnc1` (centres undefined), the GI50 in the test on Hs-578T was 28.4 µM (inactive).

For the molecule `CN1C=C(C(N)=O)Cc2ccsc21`, the GI50 in the test with LXFL 529, in the test with DLD-1, in the test on DMS-114, with SNB-78, with KM-20L2 and in the test on HOP-18 was > 100 µM (inactive) throughout.

Consider `CC(C)(C)c1cc(Cc2ccc(S(C)(=O)=O)cc2)c(O)c(C(C)(C)C)c1`, for which the GI50 is 15.5 µM (inactive) in the test with LXFL 529; 17.5 µM (inactive) with DLD-1; 15.2 µM (inactive) with XF498; 13.5 µM (inactive) in the test with DMS-114; 16.3 µM (inactive) in the test with SNB-78; 15.7 µM (inactive) with KM-20L2. The GI50 in the test with HOP-18 is 22.7 µM (inactive).

On to `Cc1cccc(NC(=O)C(=O)C(C(=O)c2ccccc2F)C2OC(=O)c3ccccc32)c1Cl` (centres undefined), for which the GI50 is 24.3 µM (inactive) in the test on LXFL 529; 27.9 µM (inactive) in the test on DLD-1; 19.7 µM (inactive) in the test with XF498; 17.5 µM (inactive) in the test with DMS-114; 32.6 µM (inactive) in the test on SNB-78; 29.6 µM (inactive) in the test with KM-20L2.

Regarding `C=C1C[C@@H]2CC[C@@]34CC5O[C@H]6C(O[C@H]7CC[C@H](CC(=O)O[C@@H]8[C@@H](C)[C@@H]9O[C@@H]%10C[C@]%11(C[C@@H]%12O[C@]%13(C[C@H](C)[C@@H]%14O[C@@H]%15CC(C(COC(C)=O)OC(C)=O)O[C@@H]%15C[C@@H]%14O%13)C[C@H](C)[C@@H]%12O%11)O[C@@H]%10C[C@@H]9O[C@H]8CC8O[C@@H](CC[C@@H]1O2)C[C@@H](C)C8(O)CO)O[C@@H]7[C@@H]6O3)[C@H]5O4` (some centres undefined), the GI50 in the test on Hs-578T is 0.272 µM (active).

Regarding `C/C(=N/O)c1cccc(Nc2nc3ccccc3c3[nH]c4ccccc4c23)c1`, the GI50 in the test on Hs-578T was 3.24 µM (inactive).

Regarding `N=C(N)N/N=C/c1c(-c2ccc(Cl)c([N+](=O)[O-])c2)nc2sc(Cl)cn12`, the GI50 in the test on Hs-578T is 2.33 µM (inactive).

For the molecule `CC(=O)Nc1ccc(C(=O)N2N=C(C)/C(=C/c3cccc(O)c3)C2=O)cc1`, the GI50 with DLD-1, in the test with XF498 and in the test with DMS-114 was > 100 µM (inactive) in each case.

In the case of `O=C1OCc2c1cc1cc3c(cc1c2-c1ccc2c(c1)OCO2)OCO3.O=C1OCc2cc3cc4c(cc3c(-c3ccc5c(c3)OCO5)c21)OCO4`, the GI50 in the test on Hs-578T is 14.5 µM (inactive).

Take `N#Cc1c2c(c(Nc3ccc(F)cc3)n3c1nc1ccccc13)CCCC2`: the GI50 in the test on Hs-578T was 36.9 µM (inactive).

On to `c1ccc(C2N=C(c3ccccn3)C(c3ccccn3)=NC2c2ccccc2)cc1` (centres undefined), for which the GI50 in the test with LXFL 529, in the test on DLD-1, in the test with XF498, with DMS-114, in the test with SNB-78 and in the test with KM-20L2 was > 100 µM (inactive) each time. Besides, the GI50 in the test on HOP-18 is 84.7 µM (inactive).

As for `CC(C)/C(Cl)=N\OC(=O)Nc1ccc(C#N)cc1`, the GI50 in the test with Hs-578T is 15.1 µM (inactive).

For the molecule `CN1CCC2(CC1)SC[C@H]1C(=O)N(c3ccc(Cl)cc3)C(=O)N12`, the GI50 in the test with Hs-578T was > 100 µM (inactive).

With `N/N=c1\c2ccccc2c2ccc3c4ccccc4/c(=N\N)c3c12`, the GI50 with LXFL 529, in the test with DLD-1, with DMS-114, in the test with SNB-78, in the test on KM-20L2 and in the test on HOP-18 was > 100 µM (inactive) throughout.

For the molecule `CCc1cc(Cc2cc(CC)c(NC(=O)C(=O)CC(=O)c3sc(-c4cccnc4)nc3C)c(CC)c2)cc(CC)c1NC(=O)C(=O)CC(=O)c1sc(-c2cccnc2)nc1C`, the GI50 with Hs-578T is > 100 µM (inactive).

Take `COc1cc2c(cc1OC)C1=C(C=O)c3ccc(OC)c(OC)c3C(O)N1CC2` (centres undefined): in the test on Hs-578T, the GI50 is 23.9 µM (inactive).

Regarding `O=C1NC(=S)NC(=O)C1=Cc1ccc(-c2ccccc2)cc1`, in the test on Hs-578T, the GI50 is 79.4 µM (inactive).

Take `O/N=C/c1ncccc1C1OCCO1`: the GI50 in the test on LXFL 529, with DLD-1, in the test with XF498, in the test with DMS-114, in the test with SNB-78 and in the test with KM-20L2 was > 100 µM (inactive) throughout. Further, in the test on HOP-18, the GI50 is > 100 µM (inactive).

Regarding `S=C1C=C(c2ccccc2)Sc2ccccc2N1`, the GI50 with Hs-578T was 19.5 µM (inactive).

On to `COc1ccc2c(c1)c(=Cc1ccc(N(C)C)cc1)c1cc(-c3ccccc3)[n+](C)n12`, for which, in the test with Hs-578T, the GI50 is 0.124 µM (active).

Regarding `COc1cc(C2c3cc4c(cc3[C@@H](Nc3ccc(F)cc3)C3COC[C@H]23)OCO4)cc(OC)c1O` (some centres undefined), the GI50 in the test with Hs-578T was 0.589 µM (active).

On to `O=C1CC(C(COCc2ccccc2)OCc2ccccc2)CC(=O)N1` (centres undefined), for which the GI50 in the test with Hs-578T was > 100 µM (inactive).

Consider `NS(=O)(=O)c1ccc(NNc2c3ccccc3nc3c(C(=O)Nc4ccc(S(N)(=O)=O)cc4)cccc23)cc1`, for which the GI50 in the test on Hs-578T was 19.1 µM (inactive).

`CN1C2CCC1CC(CCNC(c1ccccc1)c1ccccc1)C2` (centres undefined): in the test on Hs-578T, the GI50 was 29.9 µM (inactive).

Consider `Oc1cc(O)c2ccc(-c3ccc(O)c(O)c3)[o+]c2c1`, for which, in the test on Hs-578T, the GI50 was > 100 µM (inactive).

Turning to `CN(CCCN=C=S)CCCN1c2ccccc2CCc2ccccc21`, the GI50 in the test with Hs-578T is 2.04 µM (inactive).

For `COC1(OC)C2(Cl)C(Cl)=C(Cl)C1(Cl)C1COCC12` (centres undefined), the GI50 in the test on Hs-578T is > 100 µM (inactive).

`Cc1ccc(NC(=O)c2cc3ccccc3c(/N=N/c3cc(S(=O)(=O)O)ccc3O)c2O)c(C)c1`: the GI50 with Hs-578T is 31.6 µM (inactive).

Regarding `Cc1ccc(-c2cc(=O)c(=O)[nH][nH]2)cc1`, the GI50 in the test with Hs-578T is 68.4 µM (inactive).
